Data as given in the kinase profiling compilation of Christmann-Franck et al. (2016).

Assays:
Assay in all cases: Caliper, Mobility shift assay off-chip
Settings in all cases: compound 10.0 µM
[1] = biological target: ABL1 (human) (UniProt P00519)
[2] = biological target: AXL (human) (UniProt P30530)
[3] = biological target: BRSK1 (human) (UniProt Q8TDC3)
[4] = biological target: CAMK2B (human) (UniProt Q13554)
[5] = biological target: CDK2 CCNE1 (human) (UniProt P24864+P24941)
[6] = tested on: CHEK2 (human), O96017 [R145W]
[7] = biological target: CHUK (human) (UniProt O15111)
[8] = biological target: CSNK1G2 (human) (UniProt P78368)
[9] = biological target: CSNK2A2 (human) (UniProt P19784)
[10] = biological target: DAPK1 (human) (UniProt P53355)
[11] = biological target: DYRK2 (human) (UniProt Q92630)
[12] = biological target: EPHA5 (human) (UniProt P54756)
[13] = biological target: FER (human) (UniProt P16591)
[14] = tested on: FGFR2 (human), P21802 [N549H]
[15] = biological target: FGR (human) (UniProt P09769)
[16] = biological target: GRK5 (human) (UniProt P34947)
[17] = biological target: HIPK2 (human) (UniProt Q9H2X6)
[18] = biological target: ITK (human) (UniProt Q08881)
[19] = tested on: KIT (human), P10721 [D816V]
[20] = biological target: LIMK1 (human) (UniProt P53667)
[21] = biological target: LYN (human) (UniProt P07948)
[22] = biological target: MAP2K1 (human) (UniProt Q02750)
[23] = biological target: MAPKAPK3 (human) (UniProt Q16644)
[24] = biological target: MERTK (human) (UniProt Q12866)
[25] = biological target: MKNK2 (human) (UniProt Q9HBH9)
[26] = biological target: NEK3 (human) (UniProt P51956)
[27] = biological target: NUAK1 (human) (UniProt O60285)
[28] = biological target: PDGFRA (human) (UniProt P16234)
[29] = tested on: PDGFRA (human), P16234 [D842V]
[30] = biological target: PRKACA (human) (UniProt P17612)
[31] = biological target: PRKG1 (human) (UniProt Q13976)
[32] = biological target: PTK2B (human) (UniProt Q14289)
[33] = biological target: RPS6KA2 KD1 KD2 (human) (UniProt Q15349)
[34] = biological target: RPS6KA4 KD1 KD2 (human) (UniProt O75676)
[35] = biological target: STK10 (human) (UniProt O94804)
[36] = biological target: STK3 (human) (UniProt Q13188)
[37] = biological target: TAOK2 (human) (UniProt Q9UL54)
[38] = biological target: TBK1 (human) (UniProt Q9UHD2)
[39] = biological target: TSSK2 (human) (UniProt Q96PF2)
[40] = biological target: VRK2 (human) (UniProt Q86Y07)
[41] = biological target: WNK2 (human) (UniProt Q9Y3S1)

Chain of LYN (human) (P07948 whole entry, looked up): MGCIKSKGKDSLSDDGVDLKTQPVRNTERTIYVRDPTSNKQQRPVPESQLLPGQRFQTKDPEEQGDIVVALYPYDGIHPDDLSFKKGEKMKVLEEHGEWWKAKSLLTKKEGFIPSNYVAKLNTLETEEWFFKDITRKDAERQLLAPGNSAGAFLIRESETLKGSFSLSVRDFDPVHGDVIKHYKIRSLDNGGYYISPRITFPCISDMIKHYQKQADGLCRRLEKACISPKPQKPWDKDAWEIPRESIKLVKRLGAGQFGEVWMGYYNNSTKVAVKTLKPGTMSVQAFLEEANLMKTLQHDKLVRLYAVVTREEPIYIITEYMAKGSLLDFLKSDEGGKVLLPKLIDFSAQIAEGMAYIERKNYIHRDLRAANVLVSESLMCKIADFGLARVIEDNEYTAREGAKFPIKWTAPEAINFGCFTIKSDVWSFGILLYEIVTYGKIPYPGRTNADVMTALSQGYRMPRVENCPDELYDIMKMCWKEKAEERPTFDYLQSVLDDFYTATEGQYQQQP
Chain of PRKG1 (human) (Q13976 whole entry, looked up): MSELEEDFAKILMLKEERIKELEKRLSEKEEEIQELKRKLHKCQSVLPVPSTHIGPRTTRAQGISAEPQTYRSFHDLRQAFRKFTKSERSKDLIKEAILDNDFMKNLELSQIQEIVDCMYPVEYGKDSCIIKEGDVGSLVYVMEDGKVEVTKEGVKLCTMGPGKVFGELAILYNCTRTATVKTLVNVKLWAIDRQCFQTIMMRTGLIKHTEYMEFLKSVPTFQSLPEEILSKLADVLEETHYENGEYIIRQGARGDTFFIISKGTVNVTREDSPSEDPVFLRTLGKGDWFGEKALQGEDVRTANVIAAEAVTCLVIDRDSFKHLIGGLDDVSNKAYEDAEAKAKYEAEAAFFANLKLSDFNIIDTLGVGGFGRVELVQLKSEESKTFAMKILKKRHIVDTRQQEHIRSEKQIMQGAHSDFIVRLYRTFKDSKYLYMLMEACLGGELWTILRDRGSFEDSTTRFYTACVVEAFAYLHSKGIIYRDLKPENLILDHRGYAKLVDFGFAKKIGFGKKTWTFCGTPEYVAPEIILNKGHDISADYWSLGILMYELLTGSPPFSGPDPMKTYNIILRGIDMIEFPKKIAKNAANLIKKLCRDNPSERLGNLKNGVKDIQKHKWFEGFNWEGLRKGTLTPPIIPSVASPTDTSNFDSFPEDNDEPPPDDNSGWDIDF
Chain of CHUK (human) (O15111 whole entry, looked up): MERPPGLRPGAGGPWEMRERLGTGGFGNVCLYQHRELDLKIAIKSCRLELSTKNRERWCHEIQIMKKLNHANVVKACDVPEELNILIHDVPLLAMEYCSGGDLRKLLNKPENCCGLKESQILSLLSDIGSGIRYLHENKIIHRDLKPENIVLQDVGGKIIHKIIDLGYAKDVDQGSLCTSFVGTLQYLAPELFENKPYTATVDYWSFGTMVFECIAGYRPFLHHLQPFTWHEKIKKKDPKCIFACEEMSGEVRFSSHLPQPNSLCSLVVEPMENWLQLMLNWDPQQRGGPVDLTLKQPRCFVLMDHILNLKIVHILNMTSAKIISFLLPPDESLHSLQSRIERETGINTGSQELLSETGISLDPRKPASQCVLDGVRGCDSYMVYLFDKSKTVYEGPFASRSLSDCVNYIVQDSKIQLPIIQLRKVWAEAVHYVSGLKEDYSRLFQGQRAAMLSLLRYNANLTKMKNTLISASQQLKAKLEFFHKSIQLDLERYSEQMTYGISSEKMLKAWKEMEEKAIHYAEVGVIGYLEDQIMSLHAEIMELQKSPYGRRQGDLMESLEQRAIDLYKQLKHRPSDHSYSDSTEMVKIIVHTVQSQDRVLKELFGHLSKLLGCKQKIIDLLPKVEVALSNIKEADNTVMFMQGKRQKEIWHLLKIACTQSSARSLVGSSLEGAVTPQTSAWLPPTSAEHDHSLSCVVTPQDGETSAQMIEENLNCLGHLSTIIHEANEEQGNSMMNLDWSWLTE
Chain of FGFR2 (human), P21802 [N549H] (P21802 whole entry N549H, looked up): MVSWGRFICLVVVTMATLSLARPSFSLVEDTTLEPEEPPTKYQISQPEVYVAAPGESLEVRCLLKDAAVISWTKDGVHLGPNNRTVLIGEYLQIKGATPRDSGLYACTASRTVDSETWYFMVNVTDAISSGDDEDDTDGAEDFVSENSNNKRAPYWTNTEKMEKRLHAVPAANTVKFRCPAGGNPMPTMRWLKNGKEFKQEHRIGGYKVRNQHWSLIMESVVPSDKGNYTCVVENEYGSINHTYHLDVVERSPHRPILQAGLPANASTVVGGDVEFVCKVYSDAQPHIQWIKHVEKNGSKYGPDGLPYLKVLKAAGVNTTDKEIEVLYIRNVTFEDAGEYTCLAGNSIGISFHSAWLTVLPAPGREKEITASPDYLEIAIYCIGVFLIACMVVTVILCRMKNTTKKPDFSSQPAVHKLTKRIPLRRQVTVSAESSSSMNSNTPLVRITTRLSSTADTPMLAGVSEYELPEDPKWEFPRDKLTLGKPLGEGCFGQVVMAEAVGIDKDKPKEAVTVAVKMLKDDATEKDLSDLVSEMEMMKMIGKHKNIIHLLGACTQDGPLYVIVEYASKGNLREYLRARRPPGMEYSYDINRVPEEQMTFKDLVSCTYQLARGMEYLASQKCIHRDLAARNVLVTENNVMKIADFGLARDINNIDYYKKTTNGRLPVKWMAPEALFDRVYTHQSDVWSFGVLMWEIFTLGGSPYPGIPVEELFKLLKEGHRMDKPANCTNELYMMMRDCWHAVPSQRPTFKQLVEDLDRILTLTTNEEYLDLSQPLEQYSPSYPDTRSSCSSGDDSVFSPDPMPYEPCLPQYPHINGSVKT
Chain of CSNK2A2 (human) (P19784 whole entry, looked up): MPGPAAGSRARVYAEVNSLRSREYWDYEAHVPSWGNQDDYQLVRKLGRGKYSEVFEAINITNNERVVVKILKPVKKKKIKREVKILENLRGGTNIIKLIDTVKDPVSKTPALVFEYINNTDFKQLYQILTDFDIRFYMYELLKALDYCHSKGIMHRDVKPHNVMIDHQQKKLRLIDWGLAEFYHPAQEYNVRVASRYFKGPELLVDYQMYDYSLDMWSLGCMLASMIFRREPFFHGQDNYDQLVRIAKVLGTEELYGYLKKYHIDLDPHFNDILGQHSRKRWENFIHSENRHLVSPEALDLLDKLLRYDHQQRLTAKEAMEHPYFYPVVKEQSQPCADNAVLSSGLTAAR
Chain of NEK3 (human) (P51956 whole entry, looked up): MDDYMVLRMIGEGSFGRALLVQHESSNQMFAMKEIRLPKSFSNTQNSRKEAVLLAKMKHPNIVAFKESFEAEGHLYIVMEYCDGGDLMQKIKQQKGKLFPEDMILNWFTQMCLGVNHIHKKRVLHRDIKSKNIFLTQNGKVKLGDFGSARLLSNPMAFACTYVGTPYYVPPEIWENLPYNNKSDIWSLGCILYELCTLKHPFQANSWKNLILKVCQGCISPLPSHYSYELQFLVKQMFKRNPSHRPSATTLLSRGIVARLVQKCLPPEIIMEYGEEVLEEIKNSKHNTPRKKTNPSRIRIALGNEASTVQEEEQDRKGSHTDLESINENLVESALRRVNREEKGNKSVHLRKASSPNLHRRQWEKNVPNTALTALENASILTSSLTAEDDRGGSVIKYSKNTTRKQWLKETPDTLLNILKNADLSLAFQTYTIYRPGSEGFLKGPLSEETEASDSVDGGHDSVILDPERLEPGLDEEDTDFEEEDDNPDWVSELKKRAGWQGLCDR
Chain of VRK2 (human) (Q86Y07 whole entry, looked up): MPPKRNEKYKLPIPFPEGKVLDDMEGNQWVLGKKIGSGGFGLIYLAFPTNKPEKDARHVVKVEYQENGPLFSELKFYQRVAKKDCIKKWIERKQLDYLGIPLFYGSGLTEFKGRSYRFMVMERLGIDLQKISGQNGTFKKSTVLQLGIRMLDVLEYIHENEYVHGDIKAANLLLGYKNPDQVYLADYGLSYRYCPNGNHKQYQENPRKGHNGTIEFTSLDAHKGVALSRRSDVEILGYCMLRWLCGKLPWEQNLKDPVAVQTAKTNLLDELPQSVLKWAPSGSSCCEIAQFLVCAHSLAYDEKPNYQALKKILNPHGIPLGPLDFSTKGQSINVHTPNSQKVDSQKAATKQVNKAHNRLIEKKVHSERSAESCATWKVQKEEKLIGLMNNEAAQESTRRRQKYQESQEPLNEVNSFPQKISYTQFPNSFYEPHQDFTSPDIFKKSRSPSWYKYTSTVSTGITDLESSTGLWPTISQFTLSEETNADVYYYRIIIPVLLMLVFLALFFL
Chain of TBK1 (human) (Q9UHD2 whole entry, looked up): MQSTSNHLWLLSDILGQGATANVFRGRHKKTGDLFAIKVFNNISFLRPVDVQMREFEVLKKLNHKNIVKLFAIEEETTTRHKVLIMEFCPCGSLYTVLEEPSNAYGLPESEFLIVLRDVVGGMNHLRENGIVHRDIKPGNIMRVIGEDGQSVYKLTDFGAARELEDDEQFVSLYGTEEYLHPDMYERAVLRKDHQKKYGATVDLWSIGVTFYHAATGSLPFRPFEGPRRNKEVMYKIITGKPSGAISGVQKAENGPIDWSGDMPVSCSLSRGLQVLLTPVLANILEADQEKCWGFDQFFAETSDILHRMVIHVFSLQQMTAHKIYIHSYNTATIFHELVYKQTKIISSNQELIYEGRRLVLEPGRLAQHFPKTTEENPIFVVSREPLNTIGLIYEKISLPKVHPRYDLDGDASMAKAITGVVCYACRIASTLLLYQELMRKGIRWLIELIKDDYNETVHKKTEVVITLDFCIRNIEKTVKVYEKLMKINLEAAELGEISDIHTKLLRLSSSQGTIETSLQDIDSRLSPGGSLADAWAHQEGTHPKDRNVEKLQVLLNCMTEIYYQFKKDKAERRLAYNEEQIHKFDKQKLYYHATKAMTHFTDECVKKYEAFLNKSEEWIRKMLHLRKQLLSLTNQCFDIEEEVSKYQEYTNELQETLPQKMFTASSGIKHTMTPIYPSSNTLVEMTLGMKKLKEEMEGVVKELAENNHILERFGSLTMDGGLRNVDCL

O=C(N[C@@H](COc1ccc2[nH]c(=O)[nH]c2c1)c1ccccc1)c1cccn(Cc2ccc(F)c(F)c2)c1=O
residual activity [1]: 115% | residual activity [2]: 107% | residual activity [3]: 109% | residual activity [4]: 105% | residual activity [5]: 104% | residual activity [6]: 96% | residual activity [7]: 125% | residual activity [8]: 97% | residual activity [9]: 105% | residual activity [10]: 113% | residual activity [11]: 101% | residual activity [12]: 99% | residual activity [13]: 98% | residual activity [14]: 106% | residual activity [15]: 100% | residual activity [16]: 69% | residual activity [17]: 107% | residual activity [18]: 108% | residual activity [19]: 111% | residual activity [20]: 97% | residual activity [21]: 115% | residual activity [22]: 102% | residual activity [23]: 102% | residual activity [24]: 95% | residual activity [25]: 101% | residual activity [26]: 104% | residual activity [27]: 106% | residual activity [28]: 108% | residual activity [29]: 108% | residual activity [30]: 117% | residual activity [31]: 111% | residual activity [32]: 98% | residual activity [33]: 102% | residual activity [34]: 106% | residual activity [35]: 113% | residual activity [36]: 101% | residual activity [37]: 98% | residual activity [38]: 93% | residual activity [39]: 115% | residual activity [40]: 99% | residual activity [41]: 104%
